Experimental data reported in article PMC9788418, “Design, Synthesis and Biological Evaluation of Syn and Anti-like Double Warhead Quinolinones Bearing Dihydroxy Naphthalene Moiety as Epidermal Growth Factor Receptor Inhibitors with Potential Apoptotic Antiproliferative Action” (Molecules, 2022).
Like-named read-outs stand apart in the source and are kept apart here.

Assays:
[1] = system: MCF-10A (human mammary gland epithelial) cell line; assay: Cell viability assay (MTT) on normal cell line; type: cell-based; details: 50 µM, four days
Experimental: (§1) A cell viability test was performed using MCF-10A (human mammary gland epithelial) cell line to investigate the effect of 4a–e and 7a–e on normal cell lines. In this investigation, a concentration of 50 µM of the studied compound is employed for four days, after which cell viability is assessed.
(§2) 4.2. Biological evaluation
(§3) 4.2.1. Cytotoxic activity using MTT Assay and evaluation of IC50
(§4) MTT assay was carried out to study the effect of compounds on mammary epithelial cells (MCF-10A). The medium in which cells were propagated contained Dulbecco's modified Eagle's medium (DMEM)/ Ham's F-12 medium (1:1) supplemented with epidermal growth factor (20 ng/mL), hydrocortisone (500 ng/mL), insulin (10 μg/mL), 2 mM glutamine and 10% foetal calf serum. After every 2-3 days, the cells were passaged using trypsin ethylenediamine tetra acetic acid (EDTA). The cells were seeded at a density of 10^4 cells mL-1 in flat-bottomed culture plates containing 96 wells each. After 24 h, medium was removed from the plates and the compounds in (in 0.1% DMSO) were added (in 200 μL medium to yield a final concentration of 0.1% v/v) to the wells of plates. A single compound was designated with four wells followed by incubation of plates for 96h at 37°C. After incubation, medium was removed completely from the plates followed by addition of MTT (0.4 mg/mL in medium) to each well and subsequent incubation of plates for 3h. MTT (along with the medium) was removed and DMSO (150μL) was added to each well of the culture plates, followed by vortexing and subsequent measurement of absorbance (at 540 nm) using microplate reader. […]

[2] = system: Panc-1 (pancreas cancer cell line); assay: Antiproliferative assay; type: cell-based, human; details: read-out: Antiproliferative Activity IC50 ± SEM, Panc-1
Experimental: as §2
4.2.1. Cytotoxic activity using MTT Assay and evaluation of IC50 […]
cells were seeded at a density of 10^4 cells mL-1 in flat-bottomed culture plates containing 96 wells each. After 24 h, medium was removed from the plates and the compounds in (in 0.1% DMSO) were added (in 200 μL medium to yield a final concentration of 0.1% v/v) to the wells of plates. A single […]
incubation, medium was removed completely from the plates followed by addition of MTT (0.4 mg/mL in medium) to each well and subsequent incubation of plates for 3h. MTT (along with the medium) was removed and DMSO (150μL) was added to each well of the culture plates, followed by vortexing and subsequent measurement of absorbance (at 540 nm) using microplate reader. The data […]
(§5) 4.2.1.2. Assay for antiproliferative effect
(§6) To explore the antiproliferative potential of compounds MTT assay was performed according to previously reported procedure using different cell lines to explore the antiproliferative potential of compounds propidium iodide fluorescence assay was performed using different cell lines. To calculate the total nuclear DNA, a fluorescent dye (propidium iodide, PI) is used which can attach to the DNA, thus offering a quick and precise technique. PI cannot pass through the cell membrane and its signal intensity can be considered as directly proportional to quantity of cellular DNA. Cells whose cell membranes are damaged or have changed permeability are counted as dead ones. The assay was performed by seeding the cells of different cell lines at a density of 3000-7500 cells/well (in 200µl […]
(§7) atmospheric conditions. The medium was removed; the compounds were added to the plates at 10 µM concentrations (in 0.1% DMSO) in triplicates, followed by incubation for 48 h. DMSO (0.1%) was used as control. After incubation, medium was removed followed by the addition of PI (25 µl, 50µg/mL in water/medium) to each well of the plates. At -80 °C, the plates were allowed to freeze for 24 h, followed by thawing at 25 °C. A fluorometer (Polar-Star BMG Tech) was used to record the readings at excitation and emission wavelengths of 530 and 620 nm for each well. The percentage cytotoxicity of compounds was calculated using the following formula:
(§8) Where ATC= Absorbance of treated cells and AC= Absorbance of control. […]
(§9) positive control in the assay.

[3] = system: HT-29 (colon cancer cell line); assay: Antiproliferative assay; type: cell-based, human; details: read-out: Antiproliferative Activity IC50 ± SEM, HT-29
Experimental: as §5, §6, §7, §8, §9

[4] = system: MCF-7 (breast cancer cell line); assay: Antiproliferative assay; type: cell-based, human; details: read-out: Antiproliferative Activity IC50 ± SEM, MCF-7
Experimental: as §5, §6, §7, §8, §9

[5] = system: A-549 (epithelial cancer cell line); assay: Antiproliferative assay; type: cell-based, human; details: read-out: Antiproliferative Activity IC50 ± SEM, A-549
Experimental: as §5, §6, §7, §8, §9

[6] = system: four tested cancer cell lines (A-549, MCF-7, Panc-1, HT-29); assay: Antiproliferative assay, average over the four cell lines; type: cell-based, human; details: for GI50: mean of the four cancer cell lines
Experimental: The newly synthesized compounds were tested for antiproliferative activity against four different types of cancer cells: A-549 (epithelial cancer cell line), MCF-7 (breast cancer cell line), Panc-1 (pancreas cancer cell line), and HT-29 (colon cancer cell line).
After 24 h, medium was removed from the plates and the compounds in (in 0.1% DMSO) were added (in 200 μL medium to yield a final concentration of 0.1% v/v) to the wells of plates. A single compound was designated with four wells followed by incubation of plates for 96h at 37°C. After incubation, medium was removed completely from the plates followed by addition of MTT (0.4 mg/mL in medium) to each well and subsequent incubation of plates for 3h. MTT (along with the medium) was removed and DMSO (150μL) was added to each well of the culture plates, followed by vortexing and subsequent measurement of absorbance (at 540 nm) using microplate reader. The data are shown as percentage inhibition of proliferation in comparison with controls containing 0.1% 4.2.1.2. Assay for antiproliferative effect
To explore the antiproliferative potential of compounds MTT assay was performed according to previously reported procedure using different cell lines to explore the antiproliferative potential of compounds propidium iodide fluorescence assay was performed using different cell lines. To calculate the total nuclear DNA, a fluorescent dye (propidium iodide, PI) is used which can attach to the DNA, thus offering a quick and precise technique. PI cannot pass through the cell membrane and its signal intensity can be considered as directly proportional to quantity of cellular DNA. Cells whose cell membranes are damaged or have changed permeability are counted as dead ones. The assay was performed by seeding the cells of different cell lines at a density of 3000-7500 cells/well (in 200µl medium) in culture plates followed by incubation for 24h at 37 °C in humidified 5% CO2/95% air atmospheric conditions. The medium was removed; the compounds were added to the plates at 10 µM concentrations (in 0.1% DMSO) in triplicates, followed by incubation for 48 h. DMSO (0.1%) was used as control. After incubation, medium was removed followed by the addition of PI (25 µl, 50µg/mL in water/medium) to each well of the plates. At -80 °C, the plates were allowed to freeze for 24 h, followed by thawing at 25 °C. A fluorometer (Polar-Star BMG Tech) was used to record the readings at excitation and emission wavelengths of 530 and 620 nm for each well. The percentage cytotoxicity of compounds was calculated using the following formula:
Where ATC= Absorbance of treated cells and AC= Absorbance of control. Erlotinib was used as positive control in the assay.

[7] = Cell viability assay (MTT) on normal cell line; type: cell-based, human; details: human, four days
Experimental: as §1, §2, §3, §4

caspase-3 [8] = assay: Caspase-3 activation assay; details: A-549, vs control untreated cells
Experimental: (§10) record autophosphorylation level, EGFR kinase assay was carried out based on DELFIA/Time-
(§11) Resolved Fluorometry. The compounds were first dissolved in DMSO absolute, after dilution to
Each compound (10 µL) was incubated
(§12) with recombinant enzyme (10 µL, 5 ng for EGFR, 1:80 dilution in 100 mM HEPES) for 10 min at
(§13) 25 °C, after the addition of 5X buffer (10 µL, containing 2 mM MnCl2, 100 µM Na3VO4, 20 mM HEPES and 1 mM DTT) and ATP-MgCl2 (20 µL, containing 0.1 mM ATP and 50 mM MgCl2) and
(§14) incubation for 1h. The negative and positive controls were included in each plate by the incubation
(§15) of enzyme either with or without ATP-MgCl2. The liquid was removed after incubation and the plates
(§16) were washed thrice using wash buffer. Europium-tagged antiphosphotyrosine antibody (75 µL, 400
(§17) ng) was added to each well followed by incubation of 1h and then washing of the plates using buffer.
(§18) The enhancement solution was added to each well and the signal was recorded at excitation and
(§19) The autophosphorylation percentage inhibition by compounds was calculated using the following equation:

EGFR [9] = molecular target: T1, EGFR (Homo sapiens, UniProt P00533); assay: EGFR inhibitory assay (EGFR-TK, DELFIA/time-resolved fluorometry)
T1 sequence (P00533 669-1210): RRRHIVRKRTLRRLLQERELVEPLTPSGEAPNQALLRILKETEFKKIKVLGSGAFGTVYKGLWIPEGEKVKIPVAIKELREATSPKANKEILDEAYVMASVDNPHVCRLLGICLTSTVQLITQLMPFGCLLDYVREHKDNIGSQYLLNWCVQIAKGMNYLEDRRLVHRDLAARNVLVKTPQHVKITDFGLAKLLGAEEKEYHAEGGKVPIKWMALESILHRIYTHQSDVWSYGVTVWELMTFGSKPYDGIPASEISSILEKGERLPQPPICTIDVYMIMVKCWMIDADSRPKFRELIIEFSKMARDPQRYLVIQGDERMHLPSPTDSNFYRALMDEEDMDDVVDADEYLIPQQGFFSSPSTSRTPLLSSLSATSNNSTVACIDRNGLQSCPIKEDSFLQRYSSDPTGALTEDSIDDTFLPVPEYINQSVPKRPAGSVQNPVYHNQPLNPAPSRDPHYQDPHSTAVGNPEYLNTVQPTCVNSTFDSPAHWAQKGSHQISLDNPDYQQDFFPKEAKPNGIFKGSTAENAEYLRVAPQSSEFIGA
Experimental: EGFR-TK assay was performed to evaluate the inhibitory potency of novel compounds against
EGFR. Baculoviral expression vectors including pBlueBacHis2B and pFASTBacHTc were used
5ʹ upstream to the EGFR sequence comprised a sequence that encoded (His)6. Sf-9 cells were infected for 72h for protein expression. The pellets of Sf-9 cells were solubilized in a buffer containing sodium vanadate (100 µM), aprotinin (10 µg/mL), triton (1%), HEPES buffer (50mM), ammonium molybdate (10 µM), benzamidine HCl (16 µg/mL), NaCl (10 mM), leupeptin (10 µg/mL) and pepstatin (10 µg/mL) at 0°C for 20 min at pH 7.4, followed by centrifugation for 20 min.
To eliminate the non-specifically bound material, a Ni-NTA super flow packed column was used to pass through and wash the crude extract supernatant first with 10 mM and then with 100 mM imidazole. Histidine-linked proteins were first eluted with 250 and then with 500 mM imidazole after (1 picture or pasted object on this page, not shown here)
dialysis against NaCl (50 mM), HEPES (20 mM), glycerol (10%) and 1 µg/mL each of aprotinin, leupeptin and pepstatin for 120 min. The purification was performed either at 4 °C or on ice. To
as §10, §11
Each compound (10 µL) was incubated
as §12, §13, §14, §15, §16, §17, §18, §19

four cancer cell lines = system: four cancer cell lines; parameters: method as in PMID 35195309; details: cited from earlier work
caspase-9 = system: caspase-9; parameters: method as in PMID 35195309; details: human Panc-1 cancer cells; cited from earlier work
EGFR [10] = molecular target: T1, EGFR; parameters: 645–1186); His6 (N); made in house; host or cells: Sf-9 insect cells (baculovirus; pBlueBacHis2B and pFASTBacHTc vectors; details: cited from earlier work
Bcl-2 = system: Bcl-2; parameters: method as in PMID 35195309; details: cited from earlier work
caspase-3 [11] = system: caspase-3; parameters: method as in PMID 35195309; details: human Panc-1 cancer cells; cited from earlier work
Cytochrome-C = system: Cytochrome-C; parameters: method as in PMID 35195309; details: human Panc-1 cancer cells; cited from earlier work
Bax = system: Bax; parameters: method as in PMID 35195309; details: vs normal untreated cells; cited from earlier work
[12] = MCF-10A mammary gland epithelial cells

Row | Compound | viability at 96 h, 50 µM [7, 12] | melting point | IC50 ([2]; Homo sapiens, PANC-1) | IC50 ([3]; Homo sapiens) | IC50 ([4]; Homo sapiens, MCF7) | IC50 ([5]; Homo sapiens, A549) | GI50 ([6]; Homo sapiens) | other results
1 | 4,4′-(((naphthalene-1,8-diylbis(oxy))bis(methylene))bis(1H-1,2,3-triazole-4,1-diyl))-bis-(8-methylquinolin-2(1H)-one) [Compound 4d] | – | – | – | – | – | – | – | Cell Viability % [1]: 86%; IC50 ([2]; Panc-1): 98 ± 9 nM; IC50 [3]: 97 ± 9 nM; IC50 ([4]; MCF-7): 95 ± 9 nM; IC50 ([5]; A-549): 90 ± 9 nM; GI50 [6]: 95 nM; times less potent than 4b (GI50) ([6]; relative to 4b): at least twofold less potent
2 | COc1ccc2[nH]c(=O)cc(-n3cc(COc4cccc5cccc(OCc6cn(-c7cc(=O)[nH]c8ccc(OC)cc78)nn6)c45)nn3)c2c1 [Compound 4c, 4,4′-(((naphthalene-1,8-diylbis(oxy))bis(methylene))bis(1H-1,2,3-triazole-4,1-diyl))-bis-(6-methoxyquinolin-2(1H)-one)] | 87% | > 360 °C | 83 ± 8 nM | 81 ± 8 nM | 79 ± 8 nM | 78 ± 8 nM | 80 nM | –
3 | O=c1cc(-n2cc(COc3cccc4c(OCc5cn(-c6cc(=O)[nH]c7ccccc67)nn5)cccc34)nn2)c2ccccc2[nH]1 [Compound 7a, 4,4′-(((naphthalene-1,5-diylbis(oxy))bis(methylene))bis(1H-1,2,3-triazole-4,1-diyl))-bis-(quinolin-2(1H)-one)] | 89% | > 360 °C | 62 ± 6 nM | 65 ± 6 nM | 59 ± 6 nM | 57 ± 6 nM | – | –
4 | COc1ccc2[nH]c(=O)cc(-n3cc(COc4cccc5c(OCc6cn(-c7cc(=O)[nH]c8ccc(OC)cc78)nn6)cccc45)nn3)c2c1 [Compound 7c, 4,4′-(((naphthalene-1,5-diylbis(oxy))bis(methylene))bis(1H-1,2,3-triazole-4,1-diyl))-bis-(6-methoxyquinolin-2(1H)-one)] | 91% | > 360 °C | 75 ± 7 nM | 76 ± 7 nM | 74 ± 7 nM | 70 ± 7 nM | 74 nM | –
5 | Cc1cccc2c(-n3cc(COc4cccc5c(OCc6cn(-c7cc(=O)[nH]c8c(C)cccc78)nn6)cccc45)nn3)cc(=O)[nH]c12 [Compound 7d, 4,4′-(((naphthalene-1,5-diylbis(oxy))bis(methylene))bis(1H-1,2,3-triazole-4,1-diyl))-bis-(8-methylquinolin-2(1H)-one)] | – | – | 57 ± 5 nM | 57 ± 5 nM | 53 ± 5 nM | 50 ± 5 nM | 54 nM | viability at 96 h, 50 µM ([7]; MCF-10A mammary gland epithelial cells (normal cell line)): 89%; Caspase-3 Fold Change (caspase-3 [8]): 7.40; IC50 (EGFR [9]): 97 ± 9 nM; fold less effective than erlotinib (EGFR IC50) (EGFR [9]; relative to erlotinib): roughly 1.3 fold
6 | O=C(CSc1nnc(Cn2cc(-c3ccccc3)nn2)o1)Nc1nc(-c2ccc(Cl)cc2)cs1 [Compound VI] | – | – | – | – | – | – | – | GI50 (four cancer cell lines): 230 nM; Caspase-9 level increase (caspase-9): 19.30 times; IC50 (EGFR [10]): 110 nM; Bcl-2 level decrease (Bcl-2): 6.3 fold; Caspase-3 level increase (caspase-3 [11]): 7.80 times; Cytochrome-C level increase (Cytochrome-C): 13 times; Bax level elevation (Bax): 40 fold
7 | CN(C)c1ccc(/C=C/C(=O)c2ccc3ncc(C(N)=O)c(Nc4ccc(Cl)cc4)c3c2)cc1 [III] | – | – | – | – | – | – | – | IC50 (EGFR [10]): 5200 nM
